Reference: patent publication US11351173B2, “Substituted pyrrolo[1,2-a]pyrimidines and their use in the treatment of medical disorders” (Bial—R&D Investments, S.A., priority 2014, dated 2022)
Converted amounts (≈) assume the structure as drawn.

Tests used:
[1] = Compound solubility in water; conditions: water; for solubility: Compound Solubility in Water
[2] = molecular target: T1, glucocerebrosidase (Gcase) (Homo sapiens, UniProt P04062); assay: Glucocerebrosidase (Gcase) activation assay, 4-methylumbelliferyl-beta-D-glucopyranoside substrate, fluorescence readout; format: biochemical; conditions: for activation at 0.1 µM: read-out: Percent Gcase Activation, 0.1 μM Test Compound; for activation at 1 µM / Percent Gcase Activation, 1 μM Test Compound: test compound at 1.0 μM; for activation at 1 µM: read-out: Percent Gcase Activation, 1 μM Test Compound
T1 construct: micellar solution containing 10 nM GCase and 100 nM saposin C
T1 sequence (P04062 40-536): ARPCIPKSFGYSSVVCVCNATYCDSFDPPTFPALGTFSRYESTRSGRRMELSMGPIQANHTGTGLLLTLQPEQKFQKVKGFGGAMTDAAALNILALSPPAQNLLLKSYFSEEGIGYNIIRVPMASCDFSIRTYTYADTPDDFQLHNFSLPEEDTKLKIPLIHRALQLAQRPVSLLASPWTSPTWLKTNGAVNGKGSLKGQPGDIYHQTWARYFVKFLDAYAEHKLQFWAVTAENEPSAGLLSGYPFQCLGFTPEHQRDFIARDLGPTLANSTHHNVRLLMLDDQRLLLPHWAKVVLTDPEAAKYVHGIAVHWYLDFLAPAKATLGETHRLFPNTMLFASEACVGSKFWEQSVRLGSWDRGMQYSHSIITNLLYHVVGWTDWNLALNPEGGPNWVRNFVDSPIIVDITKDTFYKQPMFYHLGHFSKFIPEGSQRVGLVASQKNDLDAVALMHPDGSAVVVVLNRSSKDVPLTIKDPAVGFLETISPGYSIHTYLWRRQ
Experimental: The ability of exemplary compounds to activate glucocerebrosidase (Gcase) was measured.
A 484 μL aliquot of a 1.0 mg/mL solution of phosphatidylserine (PS) (Sigma P7769) in chloroform was evaporated under a stream of nitrogen for 1 hour. The lipid film was dissolved over 4 minutes of vigorous vortexing in 40 mL of 176 mM K2HPO4/50 mM citric acid (pH 4.7) containing 7.5 μL of triton X-100, resulting in a mixed micellar preparation with a composition of 0.32 mM triton and 0.37 mol % PS. 4-Methylumbelliferyl-beta-D-glucopyranoside (ACROS-337025000) was dissolved in the micellar solution to a final concentration of 2 mM for use as the reaction substrate.
Test compounds were diluted to the desired concentrations with dimethylsulfoxide (DMSO) from 10 mM stocks, and 0.41 μL of the DMSO compound mixture was added to 100 μL of micellar solution containing 10 nM GCase and 100 nM saposin C (Enzo ALX-201-262-C050). Pre-incubation was allowed to occur for 30 minutes at room temperature, after which the reaction was initiated by combining 25 μL of substrate solution with 25 μL of compound/GCase/saposin mixture. The reaction proceeded for 15 minutes at room temperature and was stopped by adding 150 μL of 1M glycine, pH 12.5. The endpoint of the reaction was monitored by measuring fluorescence intensity (excitation: 365 nm; emission: 440 nm) on a SpectraMax i3 instrument (Molecular Devices). Test compounds were screened at 1.0 and 0.1 μM final concentration, and subsequent 8-point dose response curves were obtained using 3-fold dilutions from a maximum final concentration of 5 μM.

SMILES | solubility ([1]; in water) [µg/mL] | activation at 0.1 µM ([2]; test compound at 0.1 μM) [%] | activation at 1 µM [2] [%] | solubility [1] [µg/mL] | Compound Solubility in Water [1] [µg/mL] | Percent Gcase Activation, 0.1 μM Test Compound ([2]; test compound at 0.1 μM) | Percent Gcase Activation, 1 μM Test Compound [2]
COCCOCCO[C@H]1CC[C@H](NC(=O)c2ccn3c(C)cc(C)nc23)CC1 [III-105] |  | < 10 | < 30 | 47.3 (≈ 121 µM) |  |  | 
C#Cc1ccc(C(C)(C)NC(=O)c2ccn3c(COC)cc(COC)nc23)cc1 [III-156] |  | 10 to 20 | > 60 | 13.9 (≈ 35.5 µM) |  |  | 
C#Cc1ccc(NC(=O)c2ccn3c(C)cc(C)nc23)c(OC)c1 [III-129] |  | > 20 | > 60 | 0.3 (≈ 0.939 µM) |  |  | 
Cc1cc(C)n2ccc(C(=O)NC3CCC(C(=O)N(C)C4CC4)CC3)c2n1 (stereo not drawn) [III-135] |  |  |  |  | 41.1 | * (less than 10% Gcase activation) | + (less than 30% Gcase activation)
Cc1cc(C)n2ccc(C(=O)N[C@H]3CCCc4ccccc43)c2n1 [III-100] |  | > 20 | > 60 | 0.7 (≈ 2.19 µM) |  |  | 
C#Cc1ccc(NC(=O)c2ccn3c(C)cc(C)nc23)cc1 [III-2] |  | > 20 | > 60 | < 1.5 |  |  | 
Cc1cc(C)n2ccc(C(=O)NC3CCCc4ccc(C#N)cc43)c2n1 (stereo not drawn) [III-209] | 2.3 (≈ 6.68 µM) | 10 to 20 | > 60 |  |  |  | 
Cc1cc(C)n2ccc(C(=O)Nc3ccc(-c4cocn4)cc3)c2n1 [III-1] |  | > 20 | > 60 | < 1.5 |  |  | 
CCCCCO[C@H]1CC[C@H](NC(=O)c2ccn3c(C)cc(C)nc23)C1 [III-178] |  | > 20 | > 60 | 9.2 (≈ 26.8 µM) |  |  | 
Cc1cc(C)n2ccc(C(=O)NC3CCCC4(CCCCO4)C3)c2n1 (stereo not drawn) [III-80] |  | 10 to 20 |  | 8.7 (≈ 25.5 µM) |  |  | +++ (Gcase activation greater than 60%)
CCO[C@H]1CC[C@H](NC(=O)c2ccn3c(C)cc(C)nc23)CC1 [III-99] |  | < 10 | < 30 | 30.5 (≈ 96.7 µM) |  |  | 
Cc1cc(C)n2ccc(C(=O)N[C@H](C)c3ccccc3)c2n1 [III-165] |  | > 20 | > 60 | 1.1 (≈ 3.75 µM) |  |  | 
CCCCCO[C@H]1CC[C@H](NC(=O)c2ccn3c(COC)cc(COC)nc23)CC1 [III-154] |  | > 20 | > 60 | 10.6 (≈ 25.4 µM) |  |  | 
CCCCCO[C@H]1CC[C@H](NC(=O)c2ccn3c(C)cc(C)nc23)CC1 [III-201] |  | > 20 | > 60 | 0.5 (≈ 1.4 µM) |  |  | 
Cc1cc(C)n2ccc(C(=O)NC3CCc4nc(C)oc4C3)c2n1 (stereo not drawn) [III-284] | 21.1 (≈ 65 µM) | < 10 | < 30 |  |  |  | 
Cc1cc(C)n2ccc(C(=O)Nc3ccc(-c4cnn(C)c4)cc3)c2n1 [III-12] |  | > 20 | 30 to 60 | 0.06 (≈ 0.174 µM) |  |  | 
Cc1cc(C2CC2)n2ccc(C(=O)N[C@H]3CC[C@H](OCCCC(F)(F)F)CC3)c2n1 [III-46] |  | < 10 | > 60 | 1.7 (≈ 4.01 µM) |  |  | 
C#CCCCOC1CCC(NC(=O)c2ccn3c(C)cc(C)nc23)C1 (stereo not drawn) [III-272] | 15.8 (≈ 46.5 µM) | < 10 | > 60 |  |  |  | 
CC(C)c1ccnc2c(C(=O)N[C@H]3CCCc4ccccc43)ccn12 [III-162] |  | < 10 | > 60 | 1 (≈ 3 µM) |  |  | 
O=C(NC1CCCc2ccccc21)c1ccn2c(C(F)F)cc(C(F)F)nc12 (stereo not drawn) [III-24] |  | > 20 | > 60 | 0.2 (≈ 0.511 µM) |  |  | 
Cc1cc(Cl)nc2c(C(=O)Nc3ccc(-c4cocn4)cc3)ccn12 [III-38] |  | > 20 | 30 to 60 | 0.3 (≈ 0.85 µM) |  |  | 
Cc1cc(C(F)F)n2ccc(C(=O)Nc3ccc(-c4cocn4)cc3)c2n1 [III-27] |  | > 20 | 30 to 60 | 0.3 (≈ 0.814 µM) |  |  | 
CO[C@H]1CC[C@H](C(C)(C)NC(=O)c2ccn3c(C)cc(Cl)nc23)CC1 [III-75] |  | 10 to 20 | > 60 | 5.3 (≈ 14.6 µM) |  |  | 
O=C(N[C@H]1CCCc2ccccc21)c1ccn2c(C3CC3)ccnc12 [III-161] |  | < 10 | 30 to 60 | 0.9 (≈ 2.72 µM) |  |  | 
CCCCO[C@H]1CC[C@H](NC(=O)c2ccn3c(COC)cc(CCC)nc23)CC1 [III-269] | 0.8 (≈ 1.99 µM) | 10 to 20 | > 60 |  |  |  | 
Cc1cc(C)n2ccc(C(=O)NCC3CCC(F)(F)CC3)c2n1 [III-153] |  | 10 to 20 | 30 to 60 | 15.3 (≈ 47.6 µM) |  |  | 
Cc1cc(C)n2ccc(C(=O)NC3CCN(c4ccsc4)CC3)c2n1 [III-115] |  | < 10 | 30 to 60 | 1.9 (≈ 5.36 µM) |  |  | 
CCOCCOC1CCC(NC(=O)c2ccn3c(C)cc(C)nc23)c2ccccc21 (stereo not drawn) [III-231] | 20.1 (≈ 49.3 µM) | 10 to 20 | > 60 |  |  |  | 

Results, then the molecule that gave them:

solubility ([1]; in water) [µg/mL] | activation at 0.1 µM ([2]; test compound at 0.1 μM) [%] | activation at 1 µM [2] [%] | solubility [1] [µg/mL] | Compound Solubility in Water [1] [µg/mL] | Percent Gcase Activation, 0.1 μM Test Compound ([2]; test compound at 0.1 μM) | Percent Gcase Activation, 1 μM Test Compound [2] | SMILES
11 (≈ 32 µM) | 10 to 20 | > 60 |  |  |  |  | CC[C@@H](C)O[C@H]1CC[C@H](NC(=O)c2ccn3c(C)cc(C)nc23)CC1 [III-241]
 | 10 to 20 | > 60 | 0.8 (≈ 2.21 µM) |  |  |  | C#Cc1cccc(C(C)(C)NC(=O)c2ccn3c(COC)cc(C)nc23)c1 [III-63]
 | > 20 | > 60 | 3.3 (≈ 8.79 µM) |  |  |  | Cc1cc(C)n2ccc(C(=O)NC3CCC4(CCCO4)c4ccccc43)c2n1 (stereo not drawn) [III-143]
21.4 (≈ 62.3 µM) | 10 to 20 | > 60 |  |  |  |  | CCCO[C@H]1CC[C@H](CNC(=O)c2ccn3c(C)cc(C)nc23)CC1 [III-240]
0.9 (≈ 2.82 µM) | > 20 | > 60 |  |  |  |  | Cc1ccnc2c(C(=O)NC3(C)CCCc4ccccc43)ccn12 (stereo not drawn) [III-262]
 | > 20 | > 60 | 0.2 (≈ 0.569 µM) |  |  |  | Cc1cc(C)n2ccc(C(=O)NC3CC=C(c4cccs4)CC3)c2n1 (stereo not drawn) [III-186]
 | < 10 | < 30 | 2.4 (≈ 6.57 µM) |  |  |  | Cc1cc(C)n2ccc(C(=O)N[C@H]3CC[C@H](Oc4ncccn4)CC3)c2n1 [III-90]
 | 10 to 20 | > 60 | 2 (≈ 6.82 µM) |  |  |  | Cc1cc(C)n2ccc(C(=O)N[C@@H](C)c3ccccc3)c2n1 [III-166]
 | 10 to 20 | > 60 | 10.4 (≈ 31.6 µM) |  |  |  | Cc1cc(C)n2ccc(C(=O)N[C@H]3CC[C@H](OC(C)C)CC3)c2n1 [III-106]
 | 10 to 20 | > 60 | 4.1 (≈ 9.37 µM) |  |  |  | COCc1cc(C(F)F)n2ccc(C(=O)NC3(C)CCOc4cc(F)c(F)cc43)c2n1 (stereo not drawn) [III-58]
 | < 10 | < 30 | 20.8 (≈ 56.8 µM) |  |  |  | CNCCCCOc1ccc(NC(=O)c2ccn3c(C)cc(C)nc23)cc1 [III-20]
 | > 20 | > 60 | 3 (≈ 9.76 µM) |  |  |  | Cc1cc(C)n2ccc(C(=O)NC(C)(C)c3ccccc3)c2n1 [III-91]
3.5 (≈ 11.5 µM) | > 20 | > 60 |  |  |  |  | Cc1ccnc2c(C(=O)N[C@H]3CCCc4ccccc43)ccn12 [III-255]
 | < 10 | 30 to 60 | 0.2 (≈ 0.502 µM) |  |  |  | Cc1cc(C)n2ccc(C(=O)Nc3ccc4c(c3)C(Oc3ccccn3)CC4)c2n1 (stereo not drawn) [III-121]
